The text below walks through data of ChEMBL document CHEMBL5375973, “Design and Synthesis of Novel Near-Infrared Fluorescence Probes Based on an Open Conformation of a Cytochrome P450 1B1 Complex for Molecular Imaging of Colorectal Tumors” (J Med Chem, 2023).

Molecules are shown by their SMILES.

The target of one data set is T1, Cytochrome P450 1A2 (Homo sapiens, UniProt P05177).
T1 sequence (P05177 whole entry): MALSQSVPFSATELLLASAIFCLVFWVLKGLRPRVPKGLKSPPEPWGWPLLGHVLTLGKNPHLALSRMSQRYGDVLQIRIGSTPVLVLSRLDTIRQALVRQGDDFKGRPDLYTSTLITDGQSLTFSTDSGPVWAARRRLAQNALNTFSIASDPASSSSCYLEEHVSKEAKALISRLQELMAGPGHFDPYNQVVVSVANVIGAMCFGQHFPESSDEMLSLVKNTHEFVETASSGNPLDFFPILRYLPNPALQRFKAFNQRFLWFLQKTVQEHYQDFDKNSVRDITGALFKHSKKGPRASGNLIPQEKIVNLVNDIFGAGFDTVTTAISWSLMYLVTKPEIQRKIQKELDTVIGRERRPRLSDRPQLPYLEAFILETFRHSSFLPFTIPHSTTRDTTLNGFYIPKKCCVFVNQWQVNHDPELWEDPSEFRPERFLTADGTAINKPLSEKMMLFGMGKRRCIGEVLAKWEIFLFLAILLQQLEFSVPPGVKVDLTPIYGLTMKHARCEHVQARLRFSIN
Briefly: Inhibition of recombinant CYP1A2 (unknown origin) using 7-ethoxyresorufin as substrate preincubated for 5 mins followed by NADPH addition incubated for 50 mins by EROD assay. The format is ADME.

For a further data set, the target named is T2, Cytochrome P450 1A1 (Homo sapiens, UniProt P04798).
T2 sequence (P04798 whole entry): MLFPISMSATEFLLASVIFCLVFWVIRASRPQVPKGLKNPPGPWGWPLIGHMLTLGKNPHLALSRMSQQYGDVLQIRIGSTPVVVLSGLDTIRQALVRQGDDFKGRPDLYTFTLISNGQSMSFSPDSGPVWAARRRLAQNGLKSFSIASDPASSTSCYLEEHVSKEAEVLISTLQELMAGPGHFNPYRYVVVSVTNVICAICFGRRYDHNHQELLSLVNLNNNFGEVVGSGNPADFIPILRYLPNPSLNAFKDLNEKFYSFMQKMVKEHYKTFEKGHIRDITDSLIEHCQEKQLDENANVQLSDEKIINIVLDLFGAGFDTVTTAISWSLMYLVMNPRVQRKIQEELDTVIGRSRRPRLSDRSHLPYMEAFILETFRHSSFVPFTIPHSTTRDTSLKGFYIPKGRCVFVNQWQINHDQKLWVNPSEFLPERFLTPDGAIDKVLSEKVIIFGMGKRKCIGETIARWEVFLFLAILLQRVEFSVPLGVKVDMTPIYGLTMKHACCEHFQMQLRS
Briefly: Inhibition of recombinant CYP1A1 (unknown origin) using 7-ethoxyresorufin as substrate preincubated for 5 mins followed by NADPH addition incubated for 15 mins by EROD assay. The format is ADME.

For data set [1], the target named is T3, Cytochrome P450 1B1 (Homo sapiens, UniProt Q16678).
T3 sequence (Q16678 whole entry): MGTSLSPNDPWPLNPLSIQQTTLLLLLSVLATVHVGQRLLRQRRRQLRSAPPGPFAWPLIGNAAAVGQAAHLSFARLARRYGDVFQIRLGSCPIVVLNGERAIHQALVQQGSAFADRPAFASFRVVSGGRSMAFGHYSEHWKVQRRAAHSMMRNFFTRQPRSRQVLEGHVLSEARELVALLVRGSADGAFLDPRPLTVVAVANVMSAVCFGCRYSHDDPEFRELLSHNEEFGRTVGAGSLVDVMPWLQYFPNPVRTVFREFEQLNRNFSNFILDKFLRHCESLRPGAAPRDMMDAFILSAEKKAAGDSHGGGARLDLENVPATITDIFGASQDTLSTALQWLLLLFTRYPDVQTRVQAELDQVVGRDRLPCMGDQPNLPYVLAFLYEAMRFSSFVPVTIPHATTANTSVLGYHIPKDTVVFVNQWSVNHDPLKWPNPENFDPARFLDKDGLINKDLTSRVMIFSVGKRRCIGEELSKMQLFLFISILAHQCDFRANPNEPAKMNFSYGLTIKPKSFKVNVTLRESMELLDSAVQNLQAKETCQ
Briefly: Inhibition of recombinant CYP1B1 (unknown origin) using 7-ethoxyresorufin as substrate preincubated for 5 mins followed by NADPH addition incubated for 35 mins by EROD assay. Format: ADME.

A further data set has as its system HCT-15. Briefly: Cytotoxicity against human HCT-15 cells assessed as cell viability at 10 uM incubated for 24 hrs by MTT assay. Format: functional. The note with it: read-out: Activity. (Tetrazolium assays rely on reduction of a dye to a coloured formazan, in cell work by metabolically active cells.)
Data set [2] can be described thus: Stability of the compound assessed as drug degradation observed after 24 hrs by HPLC analysis. The format is physicochemical.
A further data set concerns HFF-1. Briefly: Cytotoxicity against human HFF-1 cells at 1 to 10 uM incubated for 24 hrs by MTT assay. The format is toxicity, cell-based. The note with it: hff-1, 24 h, dose 1-10 µM.
For data set [3], the target named is T3, Cytochrome P450 1B1. Briefly: Binding affinity to CYP1B1 in human HCT-15 cells assessed as apparent dissociation constant incubated for 1 hr by flow cytometry analysis. Particulars: read-out: Kd(app). The format is ADME, cell-based.

Usually IC50 stands for the concentration that gives 50% inhibition. Consider `COc1ccc(OC)c2c1c(OC)cc1c(=O)cc(-c3cc(F)cc(NC(=O)COCCOCCN)c3)oc12`, for which, at Cytochrome P450 1A2, the IC50 is greater than 2000 nM. For `O=c1cc(-c2ccccc2)oc2c1ccc1ccccc12` [ALPHA-NAPHTHOFLAVONE], the IC50 on Cytochrome P450 1A1 was 37.8 nM.

Regarding `COc1ccc(OC)c2c1c(OC)cc1c(=O)cc(-c3cc(O)cc(F)c3)oc12`, on Cytochrome P450 1B1 [1], the IC50 is 95 nM. For the molecule `COc1ccc(OC)c2c1c(OC)cc1c(=O)cc(-c3cc(F)cc(NC(=O)CCCCCCN)c3)oc12`, the IC50 on Cytochrome P450 1A2 amounted to 1460 nM. With `CCN1/C(=C/C=C/C=C/C2=[N+](CCCCCC(=O)NCCCCCCCCC(=O)Nc3cc(F)cc(-c4cc(=O)c5cc(OC)c6c(OC)ccc(OC)c6c5o4)c3)c3ccc4c(S(=O)(=O)[O-])cc(S(=O)(=O)O)cc4c3C2(C)C)C(C)(C)c2c1ccc1c(S(=O)(=O)O)cc(S(=O)(=O)O)cc21`, the viability at 10 µM with HCT-15 was greater than 80%. Also, the Stability result in data set [2] is “Stable”. Further, in the data set with HFF-1, the Activity entry is recorded as “Non-Toxic”. Also, the Kd on Cytochrome P450 1B1 [3] was found to be 213 nM. On the same counts, the results for `CCN1/C(=C/C=C/C=C/C2=[N+](CCCCCC(=O)NCCOCCOCCOCC(=O)Nc3cc(F)cc(-c4cc(=O)c5cc(OC)c6c(OC)ccc(OC)c6c5o4)c3)c3ccc4c(S(=O)(=O)[O-])cc(S(=O)(=O)O)cc4c3C2(C)C)C(C)(C)c2c1ccc1c(S(=O)(=O)O)cc(S(=O)(=O)O)cc21` are greater than 80%, “Stable”, “Non-Toxic” and 168 nM.

Turning to `COc1ccc(OC)c2c1c(OC)cc1c(=O)cc(-c3cc(F)cc(OCCOCCOCCN)c3)oc12`, on Cytochrome P450 1A2, the IC50 was 1840 nM. Same read-out and setting: to `COc1ccc(OC)c2c1c(OC)cc1c(=O)cc(-c3cc(F)cc(NC(=O)COCCN)c3)oc12` belongs 1600 nM.

As for `COc1ccc(OC)c2c1c(OC)cc1c(=O)cc(-c3cc(F)cc(OCCOCCOCCOCCN)c3)oc12`, the IC50 at Cytochrome P450 1A2 was greater than 2000 nM. As for `COc1ccc(OC)c2c1c(OC)cc1c(=O)cc(-c3cc(F)cc(NC(=O)COCCOCCOCCN)c3)oc12`, the 50% inhibitory concentration (IC50) at Cytochrome P450 1A2 is greater than 2000 nM. On the same count and under the same terms, then `COc1ccc(OC)c2c1c(OC)cc1c(=O)cc(-c3cc(F)cc(OCCOCCN)c3)oc12`, with 525 nM. Take `COc1ccc(OC)c2c1c(OC)cc1c(=O)cc(-c3ccc(N)c(F)c3)oc12`: on Cytochrome P450 1B1 [1], the concentration for half-maximal inhibition (IC50) came to 2.47 nM. Same read-out and setting: then `COc1ccc(OC)c2c1c(OC)cc1c(=O)cc(-c3ccc(O)c(F)c3)oc12`, with 113 nM. As to `COc1ccc(OC)c2c1c(OC)cc1c(=O)cc(-c3cc(F)cc(NC(=O)CCCCCCCCN)c3)oc12`, at Cytochrome P450 1A2, the IC50 was greater than 2000 nM. Take `COc1ccc(OC)c2c1c(OC)cc1c(=O)cc(-c3cc(N)cc(F)c3)oc12`: the IC50 at Cytochrome P450 1B1 [1] is 2.03 nM. As to `COc1ccc(OC)c2c1c(OC)cc1c(=O)cc(-c3cc(F)cc(NC(=O)CCCCN)c3)oc12`, at Cytochrome P450 1A2, the IC50 was 514 nM.
